This is an account of results in the supplement of paper PMC3974653.

In the assay the test system is MTT (mouse pheochromocytoma). The assay is described as follows: IC50 of cell viability (ATP content). The conditions noted are these: (24 or 48 h). The essentials:
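MTT mouse pheochromocytoma cells (5 µl of 200,000 cells/ml per well, white 1536-well plates, DMEM with 5% FBS and 1% horse serum) were cultured overnight at 37°C, 5% CO2. They then received 23 nl library compound in DMSO by pintool at 8 concentrations (final 0.5 nM to 46 µM) for 24 or 48 hrs. CellTiter-Glo ATP luminescence was read after 15 minutes. Signals were normalised to positive-control (100% inhibition) and DMSO (0%) wells, and IC50 came from a four-parameter logistic fit.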

Structures are written as SMILES. Counter-ions that a name gives are not always drawn. Where only a bound is given, the exact number is not on record here.

In the case of `C[C@H]1CN(C2CCC(C#N)(c3ccc(F)cc3)CC2)CC[C@@]1(C(=O)O)c1ccccc1` (stereo partly specified) [Levocabastine hydrochloride], the “IC50 of cell viability” value is above 46 µM.
`c1ccc2c(c1)Sc1ccccc1N2C[C@H]1CN2CCC1CC2` [Levomequitazine]: the “IC50 of cell viability” value was above 46 µM.
With `C#C[C@]1(O)CC[C@H]2[C@@H]3CCC4=CC(=O)CC[C@@H]4[C@H]3CC[C@@]21CC` [Levonorgestrel], the “IC50 of cell viability” value was above 46 µM.
With `CCC(=O)O[C@@](Cc1ccccc1)(c1ccccc1)[C@@H](C)CN(C)C.O=[S+]([O-])(O)c1ccc2ccccc2c1` [Levopropoxyphene napsylate], the “IC50 of cell viability” value is above 46 µM.
In the case of `CCN1CCC[C@H]1CNC(=O)c1cc([S+](N)(=O)[O-])ccc1OC` [Levosulpiride], the “IC50 of cell viability” value is above 46 µM.
On to `N[C@@H](Cc1cc(I)c(Oc2cc(I)c(O)c(I)c2)c(I)c1)C(=O)O` [Levothyroxine], for which the “IC50 of cell viability” value was above 46 µM.
As to `CNC(=N)NC(=O)Nc1c(C)cccc1C` [Lidamidine], the “IC50 of cell viability” value is above 46 µM.
With `Cc1cccc(C)c1NC(=O)CN(CC(=O)O)CC(=O)O` [Lidofenin], the “IC50 of cell viability” value is above 46 µM.
Turning to `Cc1cccc(C)c1NC(=O)CN1CCN(CCCC(c2ccc(F)cc2)c2ccc(F)cc2)CC1` [Lidoflazine], the “IC50 of cell viability” value is above 46 µM.
As to `CN1CCC(OC(=O)C(Oc2ccc(Cl)cc2)Oc2ccc(Cl)cc2)CC1` [Lifibrate], the “IC50 of cell viability” value was above 46 µM.
`CCC[C@@H]1C[C@@H](C(=O)N[C@@H]([C@H]2O[C@H](SC)[C@H](O)[C@@H](O)[C@H]2O)[C@@H](C)O)N(C)C1` [Lincomycin hydrochloride]: the “IC50 of cell viability” value was above 46 µM.
Then `CC(=O)NC[C@@H]1CN(c2ccc(N3CCOCC3)c(F)c2)C(=O)O1` [Linezolid], with above 46 µM; and `CCCCC/C=C\C/C=C\CCCCCCCC(=O)O` [Linoleic acid], with above 46 µM.
Under `CN(C1=CC=CC=C1)C(=O)C/2=C(O)/C3=C(C=CC=C3)N(C)C2=O` [Linomide] stands above 46 µM.
Take `O=C1N(c2ccccc2)c2ccccc2C1(Cc1ccncc1)Cc1ccncc1` [Linopirdine dihydrochloride]: the “IC50 of cell viability” value was above 46 µM.
In the case of `NCCCC[C@H](N[C@@H](CCc1ccccc1)C(=O)O)C(=O)N1CCC[C@@H]1C(=O)O.O.O` [Lisinopril], the “IC50 of cell viability” value was above 46 µM.
Take `CC(O)CCCCn1c(=O)c2c(ncn2C)n(C)c1=O` (stereo unspecified) [Lisofylline]: the “IC50 of cell viability” value was above 46 µM.
Under `CCN1\C=C(\C(O)=O)C(=O)C2=CC(=C(N3CCN[C@@H](C)C3)C(=C12)F)F` [Lomefloxacin HCl] stands above 46 µM; under `CCN1\C=C(\C(O)=O)C(=O)C2=CC(=C(N3CCN[C@@H](C)C3)C(=C12)F)F` [Lomefloxacin hydrochloride], above 46 µM.
Regarding `O=C(O)Cc1cn(-c2ccccc2)nc1-c1ccc(Cl)cc1` [Lonazolac], the “IC50 of cell viability” value was above 46 µM.
Consider `O=C(O)c1nn(Cc2ccc(Cl)cc2Cl)c2ccccc12` [Lonidamine], for which the “IC50 of cell viability” value is above 46 µM.
As to `O=C1Nc2ccc(Cl)cc2C(c2ccccc2Cl)=NC1O` (stereo unspecified) [Lorazepam], the “IC50 of cell viability” value is above 46 µM.
`CCCC(C)(COC(N)=O)COC(=O)NC1CC1` (stereo unspecified) [Lorbamate]: the “IC50 of cell viability” value is above 46 µM.
Turning to `C[C@H]1CNCCc2ccc(Cl)cc21` [Lorcaserin], the “IC50 of cell viability” value is above 46 µM.
`Cl/C(=C\n1cncn1)c1ccc(Cl)cc1Cl` [Loreclezole hydrochloride]: the “IC50 of cell viability” value was above 46 µM.
For the molecule `CN1C(C(=O)Nc2ccccn2)C(=O)c2sc(Cl)cc2[S+]1(=O)[O-]` (stereo unspecified) [Lornoxicam], the “IC50 of cell viability” value is above 46 µM.
